In patent US10220025B1, “Self-emulsifying formulation of CARP-1 functional mimetics” (Florida A&M University, priority 2016, dated 2019):

Tests used:
[1] = tested on: MDA-MB-468 TNBC cells, wild type; experiment: MTT viability assay, parental MDA-MB-468; assay type: cell-based, human
Protocol: (§2) In vitro inhibition of cell growth was assessed by MTT (3-[4, 5-dimethyltiazol-2-yl]-2.5-diphenyl tetrazolium bromide) reagent. Cells (5×10^3) were seeded in a 96-well culture plate and subsequently treated with respective agents at different concentrations as mentioned. Control cells were treated with 0.1% DMSO in culture medium. After treatment, the cells were incubated with 1 mg/ml of MTT reagent at 37° C. for 2-4 hours and then MTT was removed and 50 μL of DMSO was added, followed by colorimetric analysis using a multi-label plate reader at 560 nm (Victor3; PerkinElmer, Wellesley, Mass., USA).

[2] = tested on: Adriamycin-resistant (ADR-R) MDA-MB-468 sublines; experiment: MTT viability assay, ADR-resistant MDA-MB-468 sublines; assay type: cell-based, human; settings: ADR-resistant MDA-MB-468 subline 1; FIG. 5E
Protocol: (§1) Human TNBC MDA-MB-468 and MDA-MB-231, and mouse TNBC 4T1 cells were cultured in the chronic presence (>10 months) of Doxorubicin. The parental, wild-type cells were initially treated with 200 nM Doxorubicin for 2-3 weeks, followed by escalation to 400 nM, 1 μM, and 2 μM doses over a period of 3-4 weeks for each dose till resistance developed and the cells became well adapted to growth in […] of Doxorubicin for their routine culture. In the case of Cisplatin however, the human TNBC MDA-MB-468 and MDA-MB-231 were initially cultured in continuous presence of 1 μM Cisplatin for 3-4 weeks, and the dose was escalated to 1.5 μM and 3 μM over periods of 3-4 weeks for each dose till resistance developed and cells became adapted to routine culture in 3 μM dose. Subsequent, routine maintenance of the resistant cells in the presence of the respective drug was continued and multiple, resistant sublines for each of the TNBC cells were isolated and characterized for their growth inhibitory (GI)50 dose of respective therapeutic by the MTT-based viability assays as below.

TNBC cells = experiment: MTT viability assay, parental TNBC cells (lines not singled out); assay type: cell-based
Protocol: as §2

[3] = tested on: drug-resistant TNBC cells; experiment: MTT viability assay, drug-resistant TNBC sublines (not singled out); assay type: cell-based; settings: 12 h; FIGS. 4A-4E
Protocol: as §1

[4] = tested on: MCF-7, SK-BR-3 and MDA-MB-453 breast cancer cells; experiment: MTT viability assay, ADR plus CFM-4.16 in non-TNBC breast cancer cells; assay type: cell-based; settings: not shown
[5] = tested on: parental and drug-resistant human TNBC cells
Protocol: Control cells were treated with 0.1% DMSO in culture medium.

[6] = tested on: CSC-enriched populations from xenografts of parental and ADR-resistant MDA-MB-231 TNBC cells; experiment: MTT viability of tumor-derived CSC-enriched cells; assay type: cell-based, human; settings: dose-dependent; FIG. 15C
Protocol: The CSC-enriched cells were then treated with ADR, CFM-4.16, or a combination of both for noted dose and time. The cell viabilities were determined by MTT-based assay as in FIGS. 3A-3C, and plotted relative to the MTT values for the respective untreated controls. The histogram columns in panels B and C represent means of three and four independent experiments, respectively; bars, S.E. α, αα, β, ββ, ^*,**,#,##p=<0.03 relative to respective cells treated with ADR+CFM-4.16.
The TNBC cells were obtained from tumors derived from parental and drug-resistant cells or from a two-dimensional culture plate with ˜70-80% confluence. The cells were washed twice in 1×PBS and trypsinized following established protocols. […]
It was next clarified whether and to the extent CFM-4.16 was able to interfere with growth of mammospheres derived from parental and drug-resistant TNBC-cells. […] The growing mammosphere cultures were then exposed to CFM-4.16, and the viabilities of untreated and treated cultures were determined by an MTT-based assay. […]

[7] = maximal tolerated dose determination; assay type: in vivo
Source text: J. Biomed. Nanotechnol. 2015; 11:1608-1627]. […] Results was expressed as percentage.

solubility observations = assay type: physicochemical
MDA-MB-231 TNBC cells = settings: 470 mg/kg, Qd 1-19, iv, DMSO plus cremophor; not shown
[8] = tested on: Klf4, Oct4, SOX2, CD133 in MDA-MB-231 TNBC cells; experiment: Western blot, cancer stem cell markers; settings: parental and ADR-resistant MDA-MB-231; FIG. 14B
Protocol: For protein expression analysis, Western blot (WB) experiments were performed according to the standard procedures. The cells were either untreated or treated with various agents either alone or in combinations as indicated. Following treatment durations, the cells were lysed in cell lysis (10×) buffer (#9803; cell signaling) containing 0.1% of protease and phosphatase inhibitor cocktail (Sigma) for 20 min at 4° C. The lysates were centrifuged at 14,000 rpm at 4° C. for 15-20 min to remove debris. Protein concentrations of whole cell lysates were determined using the Protein Assay Kit. Supernatant proteins, 50-100 μg from each sample, were separated by SDS-polyacrylamide gel electrophoresis (SDS-PAGE) and transferred to polyvinylidene difluoride (PVDF) membrane (Bio-rad, Hercules, Calif.) by standard procedures. […] The antibody-bound proteins were visualized by treatment with the chemiluminescence detection reagent according to manufacturer's instructions, followed by exposure to X-ray film (Denville Scientific Inc.). The same membranes were re-probed with the anti-β-actin or anti-α-tubulin antibody, which was used as an internal control for protein loading.

Compound: O=C1N(Cc2ccccc2Cl)c2ccccc2C12NN=C(c1cccc(Cl)c1)S2 (stereo not drawn) [CFM-4.16]
- inhibition / loss of cell viability ([1]; 10 μM dose): 80-100%
- inhibition of viability compared with CFM-4 ([1]; 20 μM, 24 h, FIG. 3A): greater inhibition of viability
- effect of siRNA-mediated depletion of CARP-1 on growth inhibition by the compound [2]: interfered with growth inhibition
- CC50 (TNBC cells): 7 to 8 µM
- effect on ADR-mediated inhibition of viability (TNBC cells; 5 μM each, combination, 6 h, FIG. 3C): enhanced ADR-mediated inhibition of viability
- loss of cell viability compared with ADR-treated cell line (TNBC cells; 5 μM, 6 h, FIG. 3C): greater loss of cell viability
- growth of wild-type TNBC cells (TNBC cells; 12 h, FIGS. 4A-4E): inhibited growth
- activity relative to parent compound CFM-4 or other analogs (TNBC cells; SAR screen of twelve analogs): superior
- GI50 (TNBC cells; read-out: dose for inhibition of TNBC cells growth by 50% (GI50)): ~2 µM
- growth of ADR or Cisplatin-resistant TNBC sublines [3]: effectively inhibited growth
- effect on ADR-mediated growth inhibition [4]: failed to enhance ADR-mediated growth inhibition
- loss of viability, CFM-4.16 alone [5]: 45-55%
- viabilities of CSC enriched TNBC cells vs untreated [6]: significant loss of viabilities
- weight loss ([7]; daily iv 24-32 mg/kg days 1-16, total dose 482 mg/kg, by day 7 (recovery by day 18)): 1.6 % body weight
- clinical signs ([7]; daily iv, total dose 482 mg/kg): mild ataxia with some tail and leg twitching resolving within 1-2 minutes
- histology ([7]; daily iv, total dose 482 mg/kg): No other histological abnormalities
- aqueous solubility (solubility observations): poor aqueous solubility
- behaviour of DMA solution on addition of water (solubility observations): immediately got precipitated
- lipid solubility (solubility observations): good lipid solubility
- tumor growth inhibition (T/C) (MDA-MB-231 TNBC cells): failed to yield a therapeutic T/C values
- levels of Oct4 [8]: robust decline in levels of Oct4
